Tests used:
Assay in all cases: radiometric filter-binding kinase assay
[1] = target: WNK1 (human) (UniProt Q9H4A3)
[2] = target: STK16 (human) (UniProt O75716)
[3] = target: ZAP70 (human) (UniProt P43403)
[4] = target: TTBK1 (human) (UniProt Q5TCY1)
[5] = target: STK33 (human) (UniProt Q9BYT3)
[6] = target: DDR2 (human) (UniProt Q16832)
[7] = target: TSSK1B (human) (UniProt Q9BXA7)
[8] = target: TESK1 (human) (UniProt Q15569)
[9] = target: TEK (human) (UniProt Q02763)
[10] = tested on: OXSR1 (human), O95747 [T185E]
[11] = target: PTK6 (human) (UniProt Q13882)
[12] = target: EIF2AK3 (human) (UniProt Q9NZJ5)
[13] = target: STK24 (human) (UniProt Q9Y6E0)
[14] = target: TLK1 (human) (UniProt Q9UKI8)
[15] = target: CSNK1G2 (human) (UniProt P78368)
[16] = target: MYLK (human) (UniProt Q15746)
[17] = target: PRKCG (human) (UniProt P05129)
[18] = target: IRAK1 (human) (UniProt P51617)
[19] = target: CDK9 CCNT1 (human) (UniProt P50750+O60563)
[20] = target: SIK3 (human) (UniProt Q9Y2K2)
[21] = target: SIK2 (human) (UniProt Q9H0K1)
[22] = target: ABL1 (human) (UniProt P00519)
[23] = target: ULK2 (human) (UniProt Q8IYT8)
[24] = target: ULK1 (human) (UniProt O75385)

Sequence of TEK (human) (Q02763 whole entry, looked up): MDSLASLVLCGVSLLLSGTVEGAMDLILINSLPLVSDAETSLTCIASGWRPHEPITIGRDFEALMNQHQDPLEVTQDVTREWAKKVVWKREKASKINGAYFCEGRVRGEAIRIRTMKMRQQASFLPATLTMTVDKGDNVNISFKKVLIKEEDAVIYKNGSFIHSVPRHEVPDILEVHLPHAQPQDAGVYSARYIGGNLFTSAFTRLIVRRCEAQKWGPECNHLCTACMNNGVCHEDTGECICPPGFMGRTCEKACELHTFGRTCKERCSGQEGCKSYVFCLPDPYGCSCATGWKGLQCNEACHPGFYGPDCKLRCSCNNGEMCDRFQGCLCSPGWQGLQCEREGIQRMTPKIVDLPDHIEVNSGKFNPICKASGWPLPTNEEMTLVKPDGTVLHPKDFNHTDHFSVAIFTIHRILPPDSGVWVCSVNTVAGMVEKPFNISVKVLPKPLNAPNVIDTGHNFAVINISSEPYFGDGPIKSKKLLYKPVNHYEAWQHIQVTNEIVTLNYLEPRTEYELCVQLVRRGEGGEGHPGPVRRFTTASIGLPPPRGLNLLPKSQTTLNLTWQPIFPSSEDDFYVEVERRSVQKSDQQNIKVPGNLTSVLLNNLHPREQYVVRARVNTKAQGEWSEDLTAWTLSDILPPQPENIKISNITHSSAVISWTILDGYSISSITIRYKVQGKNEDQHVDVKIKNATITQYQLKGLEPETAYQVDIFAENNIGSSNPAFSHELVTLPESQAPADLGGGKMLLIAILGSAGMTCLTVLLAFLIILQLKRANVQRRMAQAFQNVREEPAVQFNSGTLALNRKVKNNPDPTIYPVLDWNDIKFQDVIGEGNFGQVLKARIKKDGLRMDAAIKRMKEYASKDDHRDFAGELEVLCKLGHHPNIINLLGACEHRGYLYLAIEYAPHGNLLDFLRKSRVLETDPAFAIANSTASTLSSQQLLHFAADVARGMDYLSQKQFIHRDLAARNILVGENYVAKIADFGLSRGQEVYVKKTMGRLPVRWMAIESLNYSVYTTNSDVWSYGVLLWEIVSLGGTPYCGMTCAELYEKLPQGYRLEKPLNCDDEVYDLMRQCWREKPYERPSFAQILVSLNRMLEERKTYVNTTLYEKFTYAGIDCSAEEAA
Sequence of STK24 (human) (Q9Y6E0 whole entry, looked up): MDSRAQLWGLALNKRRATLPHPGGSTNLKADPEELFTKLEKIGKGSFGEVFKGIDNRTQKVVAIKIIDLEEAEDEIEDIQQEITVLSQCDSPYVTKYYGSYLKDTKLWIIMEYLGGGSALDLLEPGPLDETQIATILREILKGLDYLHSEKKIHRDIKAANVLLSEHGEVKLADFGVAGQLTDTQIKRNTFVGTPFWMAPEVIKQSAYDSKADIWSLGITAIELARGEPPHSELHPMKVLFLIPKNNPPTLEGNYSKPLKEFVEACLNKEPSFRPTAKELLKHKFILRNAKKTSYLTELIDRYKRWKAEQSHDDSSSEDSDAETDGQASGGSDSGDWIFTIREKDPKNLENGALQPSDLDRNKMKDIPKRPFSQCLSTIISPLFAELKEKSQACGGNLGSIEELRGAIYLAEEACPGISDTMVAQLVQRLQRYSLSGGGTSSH
Sequence of TTBK1 (human) (Q5TCY1 whole entry, looked up): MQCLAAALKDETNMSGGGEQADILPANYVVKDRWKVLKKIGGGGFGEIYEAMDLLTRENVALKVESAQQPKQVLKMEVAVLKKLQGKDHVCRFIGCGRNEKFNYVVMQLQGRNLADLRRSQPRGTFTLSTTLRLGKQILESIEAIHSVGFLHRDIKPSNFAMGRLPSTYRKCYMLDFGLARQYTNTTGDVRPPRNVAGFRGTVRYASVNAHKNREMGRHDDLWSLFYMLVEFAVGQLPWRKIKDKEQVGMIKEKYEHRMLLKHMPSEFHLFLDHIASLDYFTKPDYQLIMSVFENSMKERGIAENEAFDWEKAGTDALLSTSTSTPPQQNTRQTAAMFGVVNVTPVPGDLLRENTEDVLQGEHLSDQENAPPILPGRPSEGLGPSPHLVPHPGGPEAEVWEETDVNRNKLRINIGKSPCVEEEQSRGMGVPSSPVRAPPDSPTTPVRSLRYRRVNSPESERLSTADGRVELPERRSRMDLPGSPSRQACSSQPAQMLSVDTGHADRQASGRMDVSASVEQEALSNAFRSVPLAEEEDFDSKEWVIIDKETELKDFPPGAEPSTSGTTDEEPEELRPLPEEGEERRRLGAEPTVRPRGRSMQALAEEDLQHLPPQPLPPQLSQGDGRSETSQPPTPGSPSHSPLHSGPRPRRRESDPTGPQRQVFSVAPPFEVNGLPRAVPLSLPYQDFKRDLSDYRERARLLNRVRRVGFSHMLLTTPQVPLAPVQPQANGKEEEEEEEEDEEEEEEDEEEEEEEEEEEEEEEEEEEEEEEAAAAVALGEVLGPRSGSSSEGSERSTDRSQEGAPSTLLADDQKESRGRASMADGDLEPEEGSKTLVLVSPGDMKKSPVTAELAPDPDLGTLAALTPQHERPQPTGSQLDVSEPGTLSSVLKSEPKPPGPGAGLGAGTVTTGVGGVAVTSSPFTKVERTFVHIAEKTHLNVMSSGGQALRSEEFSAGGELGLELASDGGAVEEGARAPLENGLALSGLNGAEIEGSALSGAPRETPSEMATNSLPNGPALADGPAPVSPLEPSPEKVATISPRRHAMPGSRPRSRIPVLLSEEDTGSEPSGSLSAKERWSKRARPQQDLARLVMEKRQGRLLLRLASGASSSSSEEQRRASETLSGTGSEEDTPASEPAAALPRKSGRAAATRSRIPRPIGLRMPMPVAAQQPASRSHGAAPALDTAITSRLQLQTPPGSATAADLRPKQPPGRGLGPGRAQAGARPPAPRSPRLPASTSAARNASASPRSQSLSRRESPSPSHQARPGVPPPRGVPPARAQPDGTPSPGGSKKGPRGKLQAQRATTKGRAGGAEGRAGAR
Sequence of CSNK1G2 (human) (P78368 whole entry, looked up): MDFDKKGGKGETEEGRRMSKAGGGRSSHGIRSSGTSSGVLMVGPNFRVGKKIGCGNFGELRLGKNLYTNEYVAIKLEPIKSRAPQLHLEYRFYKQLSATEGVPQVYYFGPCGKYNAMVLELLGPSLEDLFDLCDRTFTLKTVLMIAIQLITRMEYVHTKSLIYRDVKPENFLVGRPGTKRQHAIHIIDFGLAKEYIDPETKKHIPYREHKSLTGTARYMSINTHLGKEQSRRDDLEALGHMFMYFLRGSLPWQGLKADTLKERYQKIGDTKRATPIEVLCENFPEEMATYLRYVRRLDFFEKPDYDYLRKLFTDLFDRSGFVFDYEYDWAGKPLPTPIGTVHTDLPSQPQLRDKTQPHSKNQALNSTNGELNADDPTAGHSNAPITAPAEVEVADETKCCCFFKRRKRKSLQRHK
Sequence of TLK1 (human) (Q9UKI8 whole entry, looked up): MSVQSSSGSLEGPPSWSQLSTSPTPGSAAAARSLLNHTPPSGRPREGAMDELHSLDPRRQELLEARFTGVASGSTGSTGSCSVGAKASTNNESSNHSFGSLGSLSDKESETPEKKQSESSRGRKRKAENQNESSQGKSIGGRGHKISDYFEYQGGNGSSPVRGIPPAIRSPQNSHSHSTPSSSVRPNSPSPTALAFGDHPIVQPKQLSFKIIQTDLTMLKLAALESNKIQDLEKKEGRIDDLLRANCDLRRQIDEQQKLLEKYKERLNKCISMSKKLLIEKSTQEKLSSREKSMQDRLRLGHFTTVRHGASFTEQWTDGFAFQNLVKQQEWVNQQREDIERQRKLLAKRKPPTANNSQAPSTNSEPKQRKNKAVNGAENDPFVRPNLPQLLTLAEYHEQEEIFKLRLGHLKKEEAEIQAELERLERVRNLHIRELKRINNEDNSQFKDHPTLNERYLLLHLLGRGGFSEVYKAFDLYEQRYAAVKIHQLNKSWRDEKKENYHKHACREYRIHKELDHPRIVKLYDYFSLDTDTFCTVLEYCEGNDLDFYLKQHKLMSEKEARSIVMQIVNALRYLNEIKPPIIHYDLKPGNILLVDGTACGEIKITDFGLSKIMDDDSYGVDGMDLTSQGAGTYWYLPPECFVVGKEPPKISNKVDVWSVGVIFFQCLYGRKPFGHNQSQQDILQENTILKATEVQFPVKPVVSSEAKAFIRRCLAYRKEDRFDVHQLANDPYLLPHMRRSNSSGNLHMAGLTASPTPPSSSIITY
Sequence of PTK6 (human) (Q13882 whole entry, looked up): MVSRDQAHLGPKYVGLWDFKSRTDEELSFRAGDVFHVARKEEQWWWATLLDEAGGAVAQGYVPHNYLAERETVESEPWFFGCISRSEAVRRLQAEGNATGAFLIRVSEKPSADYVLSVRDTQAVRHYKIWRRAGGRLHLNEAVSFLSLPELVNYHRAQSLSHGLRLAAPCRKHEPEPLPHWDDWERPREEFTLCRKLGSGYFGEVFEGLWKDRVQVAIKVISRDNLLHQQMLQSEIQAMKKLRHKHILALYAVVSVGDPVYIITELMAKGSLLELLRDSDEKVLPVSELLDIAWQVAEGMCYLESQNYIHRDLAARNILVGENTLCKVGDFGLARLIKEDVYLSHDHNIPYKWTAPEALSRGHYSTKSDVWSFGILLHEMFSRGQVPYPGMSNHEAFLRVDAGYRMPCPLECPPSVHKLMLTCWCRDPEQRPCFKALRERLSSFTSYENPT
Sequence of STK16 (human) (O75716 whole entry, looked up): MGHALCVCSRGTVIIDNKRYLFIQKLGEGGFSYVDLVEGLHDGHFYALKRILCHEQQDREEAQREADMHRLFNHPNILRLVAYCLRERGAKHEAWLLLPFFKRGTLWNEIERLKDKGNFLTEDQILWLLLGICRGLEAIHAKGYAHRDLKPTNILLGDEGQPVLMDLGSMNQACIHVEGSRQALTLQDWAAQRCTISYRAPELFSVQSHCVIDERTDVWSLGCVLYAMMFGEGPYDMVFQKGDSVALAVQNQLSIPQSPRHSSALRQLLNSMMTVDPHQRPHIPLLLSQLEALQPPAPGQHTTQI

## COc1ccc(N(C(=O)Nc2c(C)cccc2C)c2cc(Nc3ccc(N4CCN(C)CC4)cc3)ncn2)c(OC)c1
[1]; compound 0.01 µM
  residual activity: 100%
[1]; compound 0.1 µM
  residual activity: 107%
[1]; compound 1.0 µM
  residual activity: 102%
[2]; compound 0.01 µM
  residual activity: 106%
[2]; compound 0.1 µM
  residual activity: 106%
[2]; compound 1.0 µM
  residual activity: 106%
[3]; compound 0.01 µM
  residual activity: 96%
[3]; compound 0.1 µM
  residual activity: 98%
[3]; compound 1.0 µM
  residual activity: 94%
[4]; compound 0.01 µM
  residual activity: 100%
[4]; compound 0.1 µM
  residual activity: 117%
[4]; compound 1.0 µM
  residual activity: 112%
[5]; compound 0.01 µM
  residual activity: 113%
[5]; compound 0.1 µM
  residual activity: 106%
[5]; compound 1.0 µM
  residual activity: 107%
[6]; compound 0.01 µM
  residual activity: 17%
[6]; compound 0.1 µM
  residual activity: 8%
[6]; compound 1.0 µM
  residual activity: 6%
[7]; compound 0.01 µM
  residual activity: 108%
[7]; compound 0.1 µM
  residual activity: 102%
[7]; compound 1.0 µM
  residual activity: 62%
[8]; compound 0.01 µM
  residual activity: 82%
[8]; compound 0.1 µM
  residual activity: 29%
[8]; compound 1.0 µM
  residual activity: 16%
[9]; compound 0.01 µM
  residual activity: 116%
[9]; compound 0.1 µM
  residual activity: 82%
[9]; compound 1.0 µM
  residual activity: 42%
[10]; compound 0.01 µM
  residual activity: 101%
[10]; compound 0.1 µM
  residual activity: 93%
[10]; compound 1.0 µM
  residual activity: 57%
[11]; compound 0.01 µM
  residual activity: 97%
[11]; compound 0.1 µM
  residual activity: 24%
[11]; compound 1.0 µM
  residual activity: 3%
[12]; compound 0.01 µM
  residual activity: 91%
[12]; compound 0.1 µM
  residual activity: 97%
[12]; compound 1.0 µM
  residual activity: 95%
[13]; compound 0.01 µM
  residual activity: 105%
[13]; compound 1.0 µM
  residual activity: 40%
[14]; compound 0.01 µM
  residual activity: 98%
[14]; compound 0.1 µM
  residual activity: 93%
[14]; compound 1.0 µM
  residual activity: 93%
[15]; compound 0.01 µM
  residual activity: 96%
[15]; compound 0.1 µM
  residual activity: 93%
[16]; compound 0.01 µM
  residual activity: 99%
[16]; compound 0.1 µM
  residual activity: 89%
[16]; compound 1.0 µM
  residual activity: 91%
[17]; compound 0.01 µM
  residual activity: 101%
[17]; compound 0.1 µM
  residual activity: 104%
[17]; compound 1.0 µM
  residual activity: 96%
[18]; compound 0.01 µM
  residual activity: 98%
[18]; compound 0.1 µM
  residual activity: 95%
[18]; compound 1.0 µM
  residual activity: 95%
[19]; compound 0.01 µM
  residual activity: 104%
[19]; compound 0.1 µM
  residual activity: 87%
[19]; compound 1.0 µM
  residual activity: 95%

## CNc1nc(-c2ccc3c(N)n[nH]c3c2)cc(N2C[C@@H](C(=O)NC3CCCCC3)CC[C@H]2C)n1
[1]; compound 1.0 µM
  residual activity: 109%
[1]; compound 10.0 µM
  residual activity: 104%
[2]; compound 1.0 µM
  residual activity: 105%
[2]; compound 10.0 µM
  residual activity: 104%
[3]; compound 1.0 µM
  residual activity: 98%
[4]; compound 1.0 µM
  residual activity: 112%
[4]; compound 10.0 µM
  residual activity: 99%
[20]; compound 1.0 µM
  residual activity: 76%
[20]; compound 10.0 µM
  residual activity: 58%
[5]; compound 1.0 µM
  residual activity: 89%
[5]; compound 10.0 µM
  residual activity: 43%
[6]; compound 1.0 µM
  residual activity: 107%
[7]; compound 1.0 µM
  residual activity: 88%
[7]; compound 10.0 µM
  residual activity: 64%
[8]; compound 1.0 µM
  residual activity: 91%
[8]; compound 10.0 µM
  residual activity: 101%
[21]; compound 1.0 µM
  residual activity: 106%
[21]; compound 10.0 µM
  residual activity: 78%
[9]; compound 1.0 µM
  residual activity: 105%
[9]; compound 10.0 µM
  residual activity: 76%
[10]; compound 1.0 µM
  residual activity: 112%
[10]; compound 10.0 µM
  residual activity: 103%
[11]; compound 1.0 µM
  residual activity: 127%
[11]; compound 10.0 µM
  residual activity: 116%
[12]; compound 1.0 µM
  residual activity: 100%
[12]; compound 10.0 µM
  residual activity: 100%
[13]; compound 1.0 µM
  residual activity: 110%
[13]; compound 10.0 µM
  residual activity: 110%
[14]; compound 1.0 µM
  residual activity: 101%
[14]; compound 10.0 µM
  residual activity: 115%
[15]; compound 1.0 µM
  residual activity: 101%
[15]; compound 10.0 µM
  residual activity: 97%
[16]; compound 0.01 µM
  residual activity: 116%
[16]; compound 0.1 µM
  residual activity: 113%
[16]; compound 1.0 µM
  residual activity: 99%
[16]; compound 10.0 µM
  residual activity: 62%
[22]; compound 1.0 µM
  residual activity: 116%
[22]; compound 10.0 µM
  residual activity: 100%
[17]; compound 10.0 µM
  residual activity: 87%
[18]; compound 1.0 µM
  residual activity: 105%
[18]; compound 10.0 µM
  residual activity: 106%
[19]; compound 1.0 µM
  residual activity: 92%
[19]; compound 10.0 µM
  residual activity: 100%

## Cc1cc(NC(=O)c2cccc(NC(=O)/C=C/CN(C)C)c2)ccc1Nc1nccc(-c2cccnc2)n1
[2]; compound 0.1 µM
  residual activity: 110%
[2]; compound 1.0 µM
  residual activity: 101%
[3]; compound 0.1 µM
  residual activity: 105%
[23]; compound 0.1 µM
  residual activity: 28%
[23]; compound 1.0 µM
  residual activity: 69%
[4]; compound 0.1 µM
  residual activity: 92%
[4]; compound 1.0 µM
  residual activity: 83%
[20]; compound 0.1 µM
  residual activity: 88%
[20]; compound 1.0 µM
  residual activity: 79%
[5]; compound 0.1 µM
  residual activity: 99%
[5]; compound 1.0 µM
  residual activity: 90%
[6]; compound 0.1 µM
  residual activity: 106%
[6]; compound 1.0 µM
  residual activity: 97%
[7]; compound 0.1 µM
  residual activity: 91%
[7]; compound 1.0 µM
  residual activity: 86%
[8]; compound 0.1 µM
  residual activity: 89%
[8]; compound 1.0 µM
  residual activity: 93%
[21]; compound 0.1 µM
  residual activity: 100%
[21]; compound 1.0 µM
  residual activity: 105%
[9]; compound 0.1 µM
  residual activity: 105%
[9]; compound 1.0 µM
  residual activity: 98%
[10]; compound 0.1 µM
  residual activity: 96%
[10]; compound 1.0 µM
  residual activity: 91%
[11]; compound 1.0 µM
  residual activity: 75%
[12]; compound 0.1 µM
  residual activity: 103%
[12]; compound 1.0 µM
  residual activity: 93%
[13]; compound 0.1 µM
  residual activity: 85%
[13]; compound 1.0 µM
  residual activity: 82%
[24]; compound 0.1 µM
  residual activity: 27%
[24]; compound 1.0 µM
  residual activity: 67%
[14]; compound 0.1 µM
  residual activity: 99%
[14]; compound 1.0 µM
  residual activity: 100%
[15]; compound 0.1 µM
  residual activity: 109%
[15]; compound 1.0 µM
  residual activity: 87%
[16]; compound 0.1 µM
  residual activity: 97%
[16]; compound 1.0 µM
  residual activity: 96%
[22]; compound 0.1 µM
  residual activity: 97%
[22]; compound 1.0 µM
  residual activity: 86%
[17]; compound 0.1 µM
  residual activity: 92%
[17]; compound 1.0 µM
  residual activity: 91%
[18]; compound 0.1 µM
  residual activity: 93%
[18]; compound 1.0 µM
  residual activity: 63%
[19]; compound 0.1 µM
  residual activity: 85%
[19]; compound 1.0 µM
  residual activity: 80%

— the kinase profiling compilation of Christmann-Franck et al. (2016)
